Source: article PMC9907012, “Synthesis and characterisation of new antimalarial fluorinated triazolopyrazine compounds” (Beilstein Journal of Organic Chemistry, 2023)
Like-named read-outs stand apart in the source and are kept apart here.

Columns and labels:
[1] = system: P. falciparum Dd2 (chloroquine, pyrimethamine and mefloquine drug-resistant strain); test: In vitro anti-plasmodial image-based assay, P. falciparum Dd2; format: cell-based, Plasmodium falciparum; conditions: for IC50 / inhibition at 80 µM: Plasmodium falciparum, DD2; for IC50: 72 h incubation, read-out: Pf Dd2 IC50 ± SD; for SI for Dd2: SI = HEK293 IC50/parasite IC50; for inhibition at 80 µM: top dose of 80 µM, read-out: Pf Dd2 inhibition at the top dose (no IC50 given)
Description: (§1) S4: In vitro anti-plasmodial image-based assay
(§2) Plasmodium falciparum 3D7 and Dd2 parasites were cultured in RPMI1640 (Life Technologies, Camarillo, CA, USA) supplemented with 2.5 mg/mL Albumax II, 5% AB human serum, 25 mM HEPES, and 0.37mM hypoxanthine. Ring stage parasites were treated with compounds following two rounds of sorbitol synchronization, as previously described.
(§3) Following incubation of assay plates for 72 h at 37 °C, and 5% CO2 and 5% O2, parasites were stained with 2-(4-amidinophenyl)-1H-indole-6-carboxamidine (DAPI) and imaged using an Opera PhenixTM High Content Screening System (PerkinElmer, Waltham, MA, USA). Images were analysed using Harmony software (PerkinElmer, Waltham, MA, USA).
(§4) S5: In vitro cytotoxicity assay
(§5) Human embryonic kidney (HEK293) cells were maintained in DMEM (Life Technologies, Camarillo, CA, USA) containing 10% FBS (Hyclone™ ThermoFisher, Melbourne, Australia).
(§6) Cytotoxicity testing was undertaken, as previously described. In brief, 5 μL of test compound was added to the well of black/clear tissue culture-treated, 384-well plates containing 3000 adherent HEK 293 cells/well in 45 μL and incubated 72 h at 37 °C in 5% CO2.
(§7) After incubation, the supernatant was removed and replaced with 40 μL of 10% Alamar Blue per well. Plates were incubated for 5−6 h and measured for fluorescence at 530 -nm excitation and 595-nm emission. The % inhibition was calculated using 0.4% DMSO (no inhibition) and […]
(§8) IC 50 values were obtained by plotting % inhibition against log dose using GraphPad Prism v.6 (San Diego, CA, USA) nonlinear regression with a […]

[2] = system: P. falciparum 3D7 (chloroquine-sensitive strain); test: In vitro anti-plasmodial image-based assay, P. falciparum 3D7; format: cell-based, Plasmodium falciparum; conditions: for IC50 / inhibition at 80 µM: Plasmodium falciparum, 3D7; for IC50: 72 h incubation, read-out: Pf 3D7 IC50 ± SD; for SI for 3D7: SI = HEK293 IC50/parasite IC50; for inhibition at 80 µM: top dose of 80 µM, read-out: Pf 3D7 inhibition at the top dose (no IC50 given)
Description: as §1, §2, §3, §4, §5, §6, §7, §8

[3] = system: Plasmodium falciparum (Pf); conditions: previous study; read-out: IC50 (antimalarial activity); cited from earlier work
[4] = values marked d are estimated IC50 as a plateau of inhibition was not reached

| Structure (SMILES) | IC50 [1, 4] [µM] | SI for Dd2 [1] | IC50 [2, 4] [µM] | SI for 3D7 [2] | melting point [°C] | IC50 ([1]; controls) [µM] | IC50 ([2]; controls) [µM] | inhibition at 80 µM [1] [%] | inhibition at 80 µM [2] [%] | IC50 [3] [µM] |
| --- | --- | --- | --- | --- | --- | --- | --- | --- | --- | --- |
| FC(F)Oc1ccc(-c2nnc3c(C(F)F)ncc(OCCc4ccccc4)n23)cc1 [Compound 12, 3-(4-(Difluoromethoxy)phenyl)-8-(difluoromethyl)-5-phenethoxy-[1,2,4]triazolo[4,3-a]pyrazine] | 19.6 ± 0.42 | >4 | 16.4 ± 1.13 | >5 |  |  |  |  |  |  |
| N#Cc1ccc(-c2nnc3c(C(F)F)ncc(OCCc4ccccc4)n23)cc1 [Compound 18, 4-(8-(Difluoromethyl)-5-phenethoxy-[1,2,4]triazolo[4,3-a]pyrazin-3-yl)benzonitrile] | 58.6 ± 1.68 | >1 | 31 ± 2.37 | >3 | 109 to 111 |  |  |  |  |  |
| COc1ccc(C[C@H](N)C(=O)N[C@H]2[C@@H](O)[C@H](n3cnc4c(N(C)C)ncnc43)O[C@@H]2CO)cc1 [Puromycin, reference compound] |  | 98 |  | 127 |  | 0.102 ± 0.0095 | 0.079 ± 0.0057 |  |  |  |
| CCOc1cncc2nnc(-c3ccc(OC(F)F)cc3)n12 [Compound 7, 3-(4-(difluoromethoxy)phenyl)-5-ethoxy-[1,2,4]triazolo[4,3-a]pyrazine] |  |  |  |  |  |  |  | < 81 | < 81 |  |
| FC(F)c1ncc(OCCc2ccccc2)n2c(-c3ccc(Cl)cc3)nnc12 [Compound 15, 3-(4-Chlorophenyl)-8-(difluoromethyl)-5-phenethoxy-[1,2,4]triazolo[4,3-a]pyrazine] | 14.3 ± 2.26 | >6 | 18.8 ± 0.21 | >4 |  |  |  |  |  |  |
| Clc1ccc(-c2nnc3cncc(OCCc4ccccc4)n23)cc1 [Compound 5, 3-(4-chlorophenyl)-5-phenethoxy-[1,2,4]triazolo[4,3-a]pyrazine] | 0.22 ± 0.01 | >364 | 0.2 ± 0.02 | >396 | 131 to 132 |  |  |  |  |  |
| CCc1nc(N)nc(N)c1-c1ccc(Cl)cc1 [Pyrimethamine, reference compound] |  |  |  | >657 |  |  | 0.0152 ± 0.0012 | < 33 |  |  |
| N#Cc1ccc(-c2nnc3c(C(F)(F)F)ncc(OCCc4ccccc4)n23)cc1 [Compound 16, 4-(5-Phenethoxy-8-(trifluoromethyl)-[1,2,4]triazolo[4,3-a]pyrazin-3-yl)benzonitrile] | 45.1 ± 6.58 | >2 | 22.5 ± 1.03 | >4 |  |  |  |  |  |  |
| N#Cc1ccc(-c2nnc3cncc(OCCc4ccccc4)n23)cc1 [Compound 6, 4-(5-phenethoxy-[1,2,4]triazolo[4,3-a]pyrazin-3-yl)benzonitrile] | 1.17 ± 0.09 | >68 | 1.15 ± 0.05 | >70 | 136 to 138 |  |  |  |  |  |
| FC(F)(F)c1ncc(OCCc2ccccc2)n2c(-c3ccc(Cl)cc3)nnc12 [Compound 13, 3-(4-Chlorophenyl)-5-phenethoxy-8-(trifluoromethyl)-[1,2,4]triazolo[4,3-a]pyrazine] | 10.2 ± 0.75 | >8 | 9.43 ± 0.44 | >9 |  |  |  |  |  |  |
| CCOc1cncc2nnc(-c3ccc(Cl)cc3)n12 [Compound 8, 3-(4-chlorophenyl)-5-ethoxy-[1,2,4]triazolo[4,3-a]pyrazine] | 2.91 ± 0.18 | >27 | 2.72 ± 0.03 | >29 |  |  |  |  |  |  |
| FC(F)Oc1ccc(-c2nnc3cncc(Cl)n23)cc1 [Compound 1] | 34.5 ± 4.46 | >2 | 45.2 ± 5.42 | >2 |  |  |  |  |  |  |
| Clc1ccc(-c2nnc3cncc(Cl)n23)cc1 [Compound 2] | 17.1 ± 0.43 | >4 | 18.9 ± 0.63 | >4 |  |  |  |  |  | 12.6 |
| FC(F)Oc1ccc(-c2nnc3cncc(OCCc4ccccc4)n23)cc1 [Compound 4] | 0.26 ± 0.01 | >312 | 0.24 ± 0.01 | >329 |  |  |  |  |  |  |
| CC(F)(F)c1ncc(OCCc2ccccc2)n2c(-c3ccc(C#N)cc3)nnc12 [Compound 17, 4-(8-(1,1-Difluoroethyl)-5-phenethoxy-[1,2,4]triazolo[4,3-a]pyrazin-3-yl)benzonitrile] |  |  |  |  |  |  |  | < 33 | < 33 |  |
| FC(F)Oc1ccc(-c2nnc3c(C(F)(F)F)ncc(OCCc4ccccc4)n23)cc1 [Compound 10, 3-(4-(Difluoromethoxy)phenyl)-5-phenethoxy-8-(trifluoromethyl)-[1,2,4]triazolo[4,3-a]pyrazine] | 17.1 ± 0.71 | >4 | 11.3 ± 1.45 | >7 |  |  |  |  |  |  |
| N#Cc1ccc(-c2nnc3cncc(Cl)n23)cc1 [Compound 3] | 26.2 ± 1.01 | >3 | 35.5 ± 3.33 | >2 |  |  |  |  |  |  |
